Results: patent publication US5017581A, “Pyridonecarboxylic acids and their anti-bacterial compositions” (Shionogi & Co., Ltd., priority 1988, dated 1991)
In brackets after ≈: the same amount, converted by molar mass.

Assays:
[1] = test system: Staphylococcus aureus Smith; experiment: Antibacterial spectrum, MIC (method of the Japan Society of Chemotherapy), A; type: cell-based; details: 10^6 cells/ml, read-out: MIC (minimum grouth inhibitory concentration)
Description: (§1) The antibacterial activity was determined by measuring minimum grouth inhibitory concentrations (MICs) in accordance with the method as designated by the Japan Society of Chemotherapy. A, B, C, and D in the table indicate the following meanings: A: Staphylococcus aureus Smith The test microorganisms were used at 10^6 cells/ml.

[2] = test system: Staphylococcus aureus SR 14 (R); experiment: Antibacterial spectrum, MIC (method of the Japan Society of Chemotherapy), B; type: cell-based; details: 10^6 cells/ml, read-out: MIC (minimum grouth inhibitory concentration)
Description: The antibacterial activity was determined by measuring minimum grouth inhibitory concentrations (MICs) in accordance with the method as designated by the Japan Society of Chemotherapy.
A, B, C, and D in the table indicate the following meanings:
B: Staphylococcus aureus SR 14 (R)
The test microorganisms were used at 10^6 cells/ml.

Escherichia coli 7437 = experiment: Antibacterial spectrum, MIC (method of the Japan Society of Chemotherapy), C; type: cell-based; details: 10^6 cells/ml, read-out: MIC (minimum grouth inhibitory concentration)
Description: as §1, with “C: Escherichia coli 7437” for “A: Staphylococcus aureus Smith”

[3] = test system: Escherichia coli PC 51149 B; experiment: Antibacterial spectrum, MIC (method of the Japan Society of Chemotherapy), D; type: cell-based; details: PC51149B, 10^6 cells/ml, read-out: MIC (minimum grouth inhibitory concentration)
Description: as §1, with “D: Escherichia coli PC 51149 B” for “A: Staphylococcus aureus Smith”

[4] = Convulsion and psychotropic action in mice after oral administration; type: in vivo; details: orally, dose of 10 mg

Compound | MIC [1] | MIC [2] | MIC (Escherichia coli 7437) | MIC [3] | convulsion and psychotropic action [4]
C=C1CN(c2c(F)cc3c(=O)c(C(=O)O)cn(C4CC4)c3c2F)CC1N (stereo not drawn) [Compound I-1, 1-Cyclopropyl-6,8-difluoro-7-(3-amino-4-methylenepyrrolidin-1-yl)-1,4-dihydro-4-oxo-3-quinolinecarboxylic acid] | 0.05 mg/L (≈ 0.138 µM) | 0.05 mg/L (≈ 0.138 µM) | < 0.003 mg/L | < 0.003 mg/L | neither convulsion nor psychotropic action was observed
C=C1CN(c2c(F)cc3c(=O)c(C(=O)O)cn(C4CC4)c3c2Cl)CC1N (stereo not drawn) [Compound I-2, 1-Cyclopropyl-8-chloro-6-fluoro-7-(3-amino-4-methylenepyrrolidin-1-yl)-1,4-dihydro-4-oxo-3-quinolinecarboxylic acid] | 0.01 mg/L (≈ 0.0265 µM) | 0.02 mg/L (≈ 0.0529 µM) | < 0.003 mg/L | < 0.003 mg/L | 
C=C1CN(c2c(F)c(N)c3c(=O)c(C(=O)O)cn(C4CC4)c3c2F)CC1N (stereo not drawn) [Compound I-3, 1-Cyclopropyl-5-amino-6,8-difluoro-7-(3-amino-4-methylenepyrrolydin-1-yl)-1,4-dihydro-4-oxo-3-quinolinecarboxylic acid] | 0.02 mg/L (≈ 0.0531 µM) | 0.05 mg/L (≈ 0.133 µM) | < 0.003 mg/L | < 0.003 mg/L | 
C=C1CN(c2nc3c(cc2F)c(=O)c(C(=O)O)cn3C2CC2)CC1N (stereo not drawn) [Compound I-4, 1-Cyclopropyl-6-fluoro-7-(3-amino-4-methylenepyrrolidin-1-yl)-1,4-dihydro-4-oxo-1,8-naphthyridine-3-carboxylic acid] | 0.1 mg/L (≈ 0.29 µM) | 0.1 mg/L (≈ 0.29 µM) | < 0.003 mg/L | 0.006 mg/L (≈ 0.0174 µM) | 
C=C1CN(c2c(F)cc3c(=O)c(C(=O)O)cn(C4CC4)c3c2F)CC1NC (stereo not drawn) [Compound I-5, 1-Cyclopropyl-6,8-difluoro-7-(3-methylamino-4-methylenepyrrolidin-1-yl)-1,4-dihydro-4-oxo-3-quinolinecarboxylic acid] | 0.05 mg/L (≈ 0.133 µM) | 0.05 mg/L (≈ 0.133 µM) | < 0.003 mg/L | 0.006 mg/L (≈ 0.016 µM) | 
